Experimental findings from patent publication EP0005186A1, “3-Alkyl-5-(2-hydroxystyryl)-isoxazoles and process for their preparation” (BASF Aktiengesellschaft, priority 1978, dated 1979) are described below.

For series [1], the system named is Isoproterenol--Tachycardie der narkotisierten Katze. Nature of the series: beta-sympatholytic effect on isoproterenol tachycardia in the anaesthetised cat. To be noted: for ß-Sympatholytische Wirkung R.W. (Relative Wirksamkeit): Propranolol = 1,00; for ED50: Felis catus, iv, read-out: ß-Sympatholytische Wirkung ED 50 %. It is filed as in vivo. The procedure:
(§1) Die Applikation der getesteten Substanzen erfolgt 10 min vor Isoproterenol an Gruppen von 3 bis 5 Katzen pro Dosis. […] Blutdrucksenkende Wirkung an der. narkotisierten Ratte. Zur Testung der blutdrucksenkenden Wirkung erhalten Gruppen von 3 bis 5 männlichen Sprague-Dawley-Ratten (Gewicht: 230 - 280 g) in Urethan-Narkose (1,78 g/kg) i.p.) die Substanz intravenös appliziert. Die Messung des Blutdrucks in der A.carotis erfolgt über Statham-Transducer. Als ED 20 % wird die Dosis ermittelt, welche den mittleren Carotisdruck um 20 % senkt. • 3. Antihypertensive Wirkung an spontan hypertonen Ratten. Die Substanzen werden Gruppen von 8 männlichen spontan hypertonen Okamoto-Ratten (Gewicht: 280 - 350 g) oral appliziert. Vor und zwei Stunden nach der Applikation wird der systolische Blutdruck am Rattenschwanz unblutig mit Hilfe von Piezokristallaufnehmern gemessen. Als ED 20 % wird unter Berücksichtigung der Nerte unbehandelter Kontrolltiere die Dosis bestimmt, welche den systolischen Druck um 20 % senkt. • 4. […] Die Beobachtungsdauer beträgt 1 Woche. Die Berechnung der wirksamen Dosen (s. 1.-3.) erfolgte aus den linearen Beziehungen zwischen den Logarithmen der Dosen und der Wirkung mit Hilfe der Regressionsanalyse.

The next series deals with narkotisierten Ratte. Nature of the series: blood-pressure-lowering effect in the anaesthetised rat. To be noted: for Blutdrucksenkende Wirkung ED 20 %: Urethan-Narkose, dose lowering blood pressure by 20 %; for Tiere gestorben: 10 mg/kg, dead animals of 6; for ED20: Rattus norvegicus, iv, read-out: Blutdrucksenkende Wirkung ED 20 %. On the procedure: (§2) Die Applikation der getesteten Substanzen erfolgt 10 min vor Isoproterenol an Gruppen von 3 bis 5 Katzen pro Dosis. […] Blutdrucksenkende Wirkung an der. narkotisierten Ratte. Zur Testung der blutdrucksenkenden Wirkung erhalten Gruppen von 3 bis 5 männlichen Sprague-Dawley-Ratten (Gewicht: 230 - 280 g) in Urethan-Narkose (1,78 g/kg) i.p.) die Substanz intravenös appliziert. Die Messung des Blutdrucks in der A.carotis erfolgt über Statham-Transducer. Als ED 20 % wird die Dosis ermittelt, welche den mittleren Carotisdruck um 20 % senkt. • 3. Antihypertensive Wirkung an spontan hypertonen Ratten. Die Substanzen werden Gruppen von 8 männlichen spontan hypertonen Okamoto-Ratten (Gewicht: 280 - 350 g) oral appliziert. Vor und zwei Stunden nach der Applikation wird der systolische Blutdruck am Rattenschwanz unblutig mit Hilfe von Piezokristallaufnehmern gemessen. Als ED 20 % wird unter Berücksichtigung der Nerte unbehandelter Kontrolltiere die Dosis bestimmt, welche den systolischen Druck um 20 % senkt. • 4. Akute Toxizität an der Maus Zur Bestimmung der akuten Toxizität (LD 50) werden die Substanzen Gruppen von je 10 weiblichen NMRI-Mäusen (Gewicht: 19 - 20 g) intraperitoneal appliziert. Die Beobachtungsdauer beträgt 1 Woche. Die Berechnung der wirksamen Dosen (s. 1.-3.) erfolgte aus den linearen Beziehungen zwischen den Logarithmen der Dosen und der Wirkung mit Hilfe der Regressionsanalyse. Die LD 50 (4.) wurden mit Hilfe der Probit-Analyse bestimmt.

Another series relates to Maus. The series can be described thus: in vivo. To be noted: Maus, i.p., observation 1 week; 10080 min. The procedure:
as §1

The test system of series [2] is spontan hypertonen Ratten. The series can be described thus: antihypertensive effect in spontaneously hypertensive rats. In kind it is in vivo, Okamoto-Ratten. To be noted: spontan hypertone Ratten, oral. The procedure: as §2, with “Die LD 50 (4.) wurden mit Hilfe der Probit-Analyse bestimmt.” left out
A short description of a further series: in vivo. To be noted: mouse, in vivo, ip. On the procedure:
as §1

Take “3-Äthyl-5-[2-(2-hydroxy-3-cyclopropylaminopropoxy)-styryl]-isoxazol [Verbindung 8]”: in series [1], the “ß-sympatholytische Wirksamkeit compared with Propranolol” value is on record as “etwa wirkungsgleich”. Moreover, in series [1] (Katze, Hexobarbital-Narkose, i.v., dose inhibiting the isoproterenol heart-rate increase by 50 %), the “ß-Sympatholytische Wirkung ED 50 %” value is 0,12 mg/kg. Also, the “ß-Sympatholytische Wirkung R.W. (Relative Wirksamkeit)” value in series [1] (Katze, i.v.) is recorded as 0,9. The “Blutdrucksenkende Wirkung ED 20 %” value in the series with narkotisierten Ratte (Ratte, i.v.) is 0,83 mg/kg. Besides, the “Letalität LD 50” value in the series on Maus was determined as 95 mg/kg.

Turning to `Cc1cc(C=Cc2ccccc2OCC(O)CNC(C)(C)C)on1` (centres unmarked) [Verbindung 7, 3-Methyl-5-[2-(2-hydroxy-3-tert.-butylaminopropoxy)-styryl]-isoxazol], the ED50 in series [1] came to 0.0055 mg/kg. Further, the “ß-Sympatholytische Wirkung R.W. (Relative Wirksamkeit)” value in series [1] (Katze, i.v.) is reported as 20,0. Besides, in the series with narkotisierten Ratte (Ratte, i.v.), the “Blutdrucksenkende Wirkung ED 20 %” value is reported as 0,40 mg/kg, the “ratio of the 10 mg/kg dose to the blood-pressure-lowering dose (0,4 mg/kg)” value was determined as 25 mal and the Tiere gestorben came to 1 von 6. Moreover, the ED20 in the series with narkotisierten Ratte amounted to 0.4 mg/kg. Also, the ED20 in series [2] (Rattus norvegicus, systolic pressure 2 h after dosing lowered by 20 %, read-out: Antihypertensive Wirkung ED 20 %) amounted to 14.5 mg/kg. The compound further yielded a 50% lethal dose (LD50) at 168 h in the series “in vivo” of 123 mg/kg.

As for `C#CC(C)(C)NCC(O)COc1ccccc1C=Cc1cc(C)no1` (centres unmarked) [Verbindung 10], the “ß-Sympatholytische Wirkung R.W. (Relative Wirksamkeit)” value in series [1] (Katze, i.v.) was 6,5. For the same compound, the ED20 with narkotisierten Ratte was determined as 1 mg/kg. The compound further returned a 50% lethal dose (LD50) at 168 h in the series “in vivo” of 247 mg/kg.

As to `CCc1cc(C=Cc2ccccc2OCC(O)CNC(C)(C)C)on1` (centres unmarked) [Verbindung 9, 3-Äthyl-5-[2-(2-hydroxy-3-tert.-butylaminopropoxy)-styryl]-isoxazol], the “ß-Sympatholytische Wirkung R.W. (Relative Wirksamkeit)” value in series [1] (Katze, i.v.) is 6,1. Also, in the series with narkotisierten Ratte, the ED20 turned out to be 0.93 mg/kg. For the same compound, in the series “in vivo”, the median lethal dose (LD50) at 168 h is 84 mg/kg.

For the compound `Cc1cc(C=Cc2ccccc2OCC(O)CNC(C)C)on1` (centres unmarked) [Verbindung 6, 3-Methyl-5-[2-(2-hydroxy-3-isopropyl-aminopropoxy)-styryl]-isoxazol], in series [1], the ED50 was 0.0077 mg/kg. The “ß-Sympatholytische Wirkung R.W. (Relative Wirksamkeit)” value in series [1] (Katze, i.v.) is reported as 14,3. Also, in the series with narkotisierten Ratte, the ED20 turned out to be 0.65 mg/kg. In “in vivo”, the LD50 at 168 h amounted to 108 mg/kg.

Take `CC(C)NCC(O)COc1cccc2ccccc12` (centres unmarked) [Propranolol, reference compound]: the Tiere gestorben in the series with narkotisierten Ratte (Ratte, i.v.) was 2 von 6. Besides, in the series with narkotisierten Ratte (Ratte, i.v., bis 2,15 mg/kg), the Blutdrucksteigerung result is given as “blutdrucksteigernd”. Moreover, in series [2] (bis zu einer Dosis von 100 mg/kg), the “Antihypertensive Wirkung” value is “wirkungslos”.
